The source of these data is patent US20070128217A1 (priority 2003, published 2007).

For assay [1], the system named is antibodies in sera from SARS patients (sera 1a, 1b, 2, 6, 37, 62, London, SARS-yellow, SARS-green). In kind it is binding, human. Also noted: Binding of serum 6 to linear peptides of protein X1 of SARS-CoV Urbani / Binding of serum 37 to linear peptides of protein X1 of SARS-CoV Urbani / Binding of serum 6 to looped/cyclic peptide (PEPSCAN-ELISA) / Binding of serum 37 to looped/cyclic peptide (PEPSCAN-ELISA) / Binding of serum 37 to looped/cyclic peptides of protein X1 of SARS-CoV Urbani / Binding of serum 6 to linear peptides of protein X2 / Binding of serum 37 to linear peptides of protein X2 / Binding of serum 37 to looped/cyclic peptides of protein X2 of SARS-CoV Urbani / Binding of serum 6 to linear peptides of protein M of SARS-CoV Urbani / Binding of serum 37 to linear peptides of protein M of SARS-CoV Urbani / Binding of serum 6 to looped/cyclic peptides of protein M of SARS-CoV Urbani / Binding of serum 37 to looped/cyclic peptides of protein M of SARS-CoV Urbani / Binding of serum 6 to linear peptides of protein X3 of SARS-CoV Urbani / Binding of serum 37 to linear peptides of protein X3 of SARS-CoV Urbani / Binding of serum 37 to looped/cyclic peptides of protein X3 of SARS-CoV Urbani / Binding of serum 6 to linear peptides of protein X4 of SARS-CoV Urbani / Binding of serum 37 to linear peptides of protein X4 of SARS-CoV Urbani / Binding of serum 37 to looped/cyclic peptides of protein X4 of SARS-CoV Urbani / Binding of serum 6 to linear peptides of protein X5 of SARS-CoV Urbani / Binding of serum 37 to linear peptides of protein X5 of SARS-CoV Urbani / Binding of serum 37 to looped/cyclic peptides of protein X5 of SARS-CoV Urbani / Binding of serum 6 to linear peptides of protein N of SARS-CoV Urbani / Binding of serum 37 to linear peptides of protein N of SARS-CoV Urbani / Binding of serum 6 to linear peptide (PEPSCAN-ELISA) / Binding of serum 1a to looped/cyclic peptides of protein N of SARS-CoV Urbani / Binding of serum 1b to looped/cyclic peptides of protein N of SARS-CoV Urbani / Binding of serum 2 to looped/cyclic peptides of protein N of SARS-CoV Urbani / Binding of serum 6 to looped/cyclic peptides of protein N of SARS-CoV Urbani / Binding of serum 37 to looped/cyclic peptides of protein N of SARS-CoV Urbani / Binding of serum 62 to looped/cyclic peptides of protein N of SARS-CoV Urbani / Binding of serum London to looped/cyclic peptides of protein N of SARS-CoV Urbani / Binding of serum SARS-green to looped/cyclic peptides of protein N of SARS-CoV Urbani: unit not given here.

For assay [2], the system named is recombinant human anti-SARS-CoV antibody 03-018. In kind it is binding. On the set-up: Binding of antibody 03-018 to linear peptides of the N protein of SARS-CoV Urbani / Binding of antibody 03-018 to looped/cyclic peptides of the N protein of SARS-CoV Urbani: unit not given here.
The subject of assay [3] is rabbit serum obtained by immunizing a rabbit with the SARS-CoV strain Frankfurt 1. It counts as binding. Also noted: Binding of a rabbit serum to linear peptides / Binding of a rabbit serum to looped peptides / Rabbit serum linear peptides / Rabbit serum looped peptides / Binding of a rabbit serum to linear peptides of protein N of SARS-CoV Urbani (Rabbit serum linear peptides) / Binding of a rabbit serum to looped/cyclic peptides of protein N of SARS-CoV Urbani (Rabbit serum looped peptides): unit not given here.

The subject of assay [4] is control sera (pooled serum of ten healthy LUMC hospital workers; commercial negative donor pooled serum from the Dutch bloodbank). It counts as binding, human. On the set-up: Binding of Control serum LUMC to linear peptides / Binding of Control serum Blood-bank to linear peptides / Binding of Control serum LUMC to looped peptides / Binding of Control Serum Blood-Bank to Looped peptides / Binding of Control serum LUMC to linear peptides of the protein M of SARS-CoV Urbani / Binding of Control serum Blood-bank to linear peptides of the protein M of SARS-CoV Urbani / Binding of Control serum LUMC to looped peptides of the protein M of SARS-CoV Urbani / Binding of Control Serum Blood-Bank to Looped peptides of the protein M of SARS-CoV Urbani: unit not given here.

Consider AAEASKKPRQKRTAT, for which, in assay [1], the “Binding of serum 1a to looped/cyclic peptides of protein N of SARS-CoV Urbani” value amounted to 0.2, the “Binding of serum 1b to looped/cyclic peptides of protein N of SARS-CoV Urbani” value worked out at 0.1, the “Binding of serum 2 to looped/cyclic peptides of protein N of SARS-CoV Urbani” value turned out to be 0.2 and the “Binding of serum 6 to looped/cyclic peptides of protein N of SARS-CoV Urbani” value worked out at 0.1. Also, in assay [1], the “Binding of serum 37 to looped/cyclic peptides of protein N of SARS-CoV Urbani” value is reported as 0.4, the “Binding of serum 62 to looped/cyclic peptides of protein N of SARS-CoV Urbani” value was 0.3, the “Binding of serum London to looped/cyclic peptides of protein N of SARS-CoV Urbani” value is given as 0.3 and the “Binding of serum SARS-green to looped/cyclic peptides of protein N of SARS-CoV Urbani” value was determined as 0.1. For the same sequence, in assay [1], the “Binding of serum SARS-yellow to looped/cyclic peptides of protein N of SARS-CoV Urbani” value amounted to 0.2; the “Recognition of the peptide by sera of SARS-CoV infected individuals, and form (linear, looped/cyclic) in which it is recognized” value is recorded as “recognized in linear form”. Besides, in assay [2], the “Binding of antibody 03-018 to linear peptides of the N protein of SARS-CoV Urbani” value was 0.1 and the “Binding of antibody 03-018 to looped/cyclic peptides of the N protein of SARS-CoV Urbani” value is 0.2. In assay [3], the “Binding of a rabbit serum to linear peptides of protein N of SARS-CoV Urbani (Rabbit serum linear peptides)” value (“Binding … (Rabbit serum linear peptides)” below) worked out at 0.3 and the “Binding of a rabbit serum to looped/cyclic peptides of protein N of SARS-CoV Urbani (Rabbit serum looped peptides)” value is recorded as 0.5. In addition, in assay [4], the “Binding of Control Serum Blood-Bank to Looped peptides” value came to 0.5, the “Binding of Control serum Blood-bank to linear peptides” value is 0.8, the “Binding of Control serum LUMC to linear peptides” value was found to be 0.9 and the “Binding of Control serum LUMC to looped peptides” value was found to be 0.5.

For the sequence LQLPQGTTLPKGFYA, in assay [2], the “Binding of antibody 03-018 to linear peptides of the N protein of SARS-CoV Urbani” value is on record as 0.1 and the “Binding of antibody 03-018 to looped/cyclic peptides of the N protein of SARS-CoV Urbani” value came out at 0.2. In assay [3], the “Binding … (Rabbit serum linear peptides)” value came out at 0.2 and the “Binding of a rabbit serum to looped/cyclic peptides of protein N of SARS-CoV Urbani (Rabbit serum looped peptides)” value is 1.0. In assay [4], the “Binding of Control Serum Blood-Bank to Looped peptides” value amounted to 0.5, the “Binding of Control serum Blood-bank to linear peptides” value is 1.0, the “Binding of Control serum LUMC to linear peptides” value worked out at 0.8 and the “Binding of Control serum LUMC to looped peptides” value was determined as 0.5.

As to MASGGGETALALLLL, in assay [2], the “Binding of antibody 03-018 to linear peptides of the N protein of SARS-CoV Urbani” value is 0.1 and the “Binding of antibody 03-018 to looped/cyclic peptides of the N protein of SARS-CoV Urbani” value stood at 0.3. Further, in assay [3], the “Binding … (Rabbit serum linear peptides)” value came to 0.2 and the “Binding of a rabbit serum to looped/cyclic peptides of protein N of SARS-CoV Urbani (Rabbit serum looped peptides)” value is on record as 1.1. In assay [4], the “Binding of Control Serum Blood-Bank to Looped peptides” value was 0.7, the “Binding of Control serum Blood-bank to linear peptides” value is recorded as 0.7, the “Binding of Control serum LUMC to linear peptides” value is recorded as 0.6 and the “Binding of Control serum LUMC to looped peptides” value is recorded as 0.9.

In the case of NAATVLQLPQGTTLP, in assay [2], the “Binding of antibody 03-018 to linear peptides of the N protein of SARS-CoV Urbani” value is listed as 0.1 and the “Binding of antibody 03-018 to looped/cyclic peptides of the N protein of SARS-CoV Urbani” value is 0.2. In addition, in assay [3], the “Binding … (Rabbit serum linear peptides)” value is given as 0.2 and the “Binding of a rabbit serum to looped/cyclic peptides of protein N of SARS-CoV Urbani (Rabbit serum looped peptides)” value is reported as 0.0. Moreover, in assay [4], the “Binding of Control Serum Blood-Bank to Looped peptides” value was 0.6, the “Binding of Control serum Blood-bank to linear peptides” value came out at 0.7, the “Binding of Control serum LUMC to linear peptides” value was 0.5 and the “Binding of Control serum LUMC to looped peptides” value is 0.4.

Regarding PARMASGGGETALAL, in assay [2], the “Binding of antibody 03-018 to linear peptides of the N protein of SARS-CoV Urbani” value came to 0.1 and the “Binding of antibody 03-018 to looped/cyclic peptides of the N protein of SARS-CoV Urbani” value was found to be 0.3. For the same sequence, in assay [3], the “Binding … (Rabbit serum linear peptides)” value is 0.2 and the “Binding of a rabbit serum to looped/cyclic peptides of protein N of SARS-CoV Urbani (Rabbit serum looped peptides)” value is given as 0.7. Further, in assay [4], the “Binding of Control Serum Blood-Bank to Looped peptides” value is recorded as 0.7, the “Binding of Control serum Blood-bank to linear peptides” value was determined as 1.0, the “Binding of Control serum LUMC to linear peptides” value is given as 0.8 and the “Binding of Control serum LUMC to looped peptides” value was determined as 0.9.

PQGTTLPKGFYAEGS: in assay [2], the “Binding of antibody 03-018 to linear peptides of the N protein of SARS-CoV Urbani” value is listed as 0.1 and the “Binding of antibody 03-018 to looped/cyclic peptides of the N protein of SARS-CoV Urbani” value came out at 0.2. In assay [3], the “Binding … (Rabbit serum linear peptides)” value is listed as 0.1 and the “Binding of a rabbit serum to looped/cyclic peptides of protein N of SARS-CoV Urbani (Rabbit serum looped peptides)” value is on record as 0.5. Moreover, in assay [4], the “Binding of Control Serum Blood-Bank to Looped peptides” value was 0.6, the “Binding of Control serum Blood-bank to linear peptides” value is listed as 0.7, the “Binding of Control serum LUMC to linear peptides” value is 0.6 and the “Binding of Control serum LUMC to looped peptides” value came to 0.6.

Consider RMASGGGETALALLL, for which, in assay [2], the “Binding of antibody 03-018 to linear peptides of the N protein of SARS-CoV Urbani” value is 0.1 and the “Binding of antibody 03-018 to looped/cyclic peptides of the N protein of SARS-CoV Urbani” value was determined as 0.3. Further, in assay [3], the “Binding … (Rabbit serum linear peptides)” value is listed as 0.2 and the “Binding of a rabbit serum to looped/cyclic peptides of protein N of SARS-CoV Urbani (Rabbit serum looped peptides)” value is 0.4. Besides, in assay [4], the “Binding of Control Serum Blood-Bank to Looped peptides” value was found to be 0.8, the “Binding of Control serum Blood-bank to linear peptides” value worked out at 0.6, the “Binding of Control serum LUMC to linear peptides” value stood at 0.5 and the “Binding of Control serum LUMC to looped peptides” value is recorded as 0.8.

As to RQKRTATKQYNVTQA, in assay [2], the “Binding of antibody 03-018 to linear peptides of the N protein of SARS-CoV Urbani” value was 0.1 and the “Binding of antibody 03-018 to looped/cyclic peptides of the N protein of SARS-CoV Urbani” value was determined as 0.2. Besides, in assay [3], the “Recognition of the peptide by the rabbit serum” value is listed as “recognized”. In assay [4], the “Binding of Control Serum Blood-Bank to Looped peptides” value came out at 0.9, the “Binding of Control serum Blood-bank to linear peptides” value was found to be 0.9, the “Binding of Control serum LUMC to linear peptides” value turned out to be 0.8 and the “Binding of Control serum LUMC to looped peptides” value amounted to 0.8.

With SPARMASGGGETALA, in assay [2], the “Binding of antibody 03-018 to linear peptides of the N protein of SARS-CoV Urbani” value was 0.1 and the “Binding of antibody 03-018 to looped/cyclic peptides of the N protein of SARS-CoV Urbani” value turned out to be 0.1. In assay [3], the “Binding … (Rabbit serum linear peptides)” value was found to be 0.2 and the “Binding of a rabbit serum to looped/cyclic peptides of protein N of SARS-CoV Urbani (Rabbit serum looped peptides)” value was 0.0. Besides, in assay [4], the “Binding of Control Serum Blood-Bank to Looped peptides” value stood at 0.1, the “Binding of Control serum Blood-bank to linear peptides” value was found to be 0.9, the “Binding of Control serum LUMC to linear peptides” value was found to be 0.8 and the “Binding of Control serum LUMC to looped peptides” value is recorded as 0.2.

TATKQYNVTQAFGRR: in assay [2], the “Binding of antibody 03-018 to linear peptides of the N protein of SARS-CoV Urbani” value was 0.1 and the “Binding of antibody 03-018 to looped/cyclic peptides of the N protein of SARS-CoV Urbani” value is given as 0.3. Moreover, the “Recognition of the peptide by the rabbit serum” value in assay [3] is on record as “recognized”. In assay [4], the “Binding of Control Serum Blood-Bank to Looped peptides” value stood at 0.9, the “Binding of Control serum Blood-bank to linear peptides” value amounted to 0.8, the “Binding of Control serum LUMC to linear peptides” value stood at 0.8 and the “Binding of Control serum LUMC to looped peptides” value amounted to 1.0.

For the sequence TTLPKGFYAEGSRGG, in assay [2], the “Binding of antibody 03-018 to linear peptides of the N protein of SARS-CoV Urbani” value was determined as 0.1 and the “Binding of antibody 03-018 to looped/cyclic peptides of the N protein of SARS-CoV Urbani” value is listed as 0.2. Moreover, in assay [3], the “Binding … (Rabbit serum linear peptides)” value amounted to 0.2 and the “Binding of a rabbit serum to looped/cyclic peptides of protein N of SARS-CoV Urbani (Rabbit serum looped peptides)” value was determined as 0.4. Moreover, in assay [4], the “Binding of Control Serum Blood-Bank to Looped peptides” value was found to be 0.6, the “Binding of Control serum Blood-bank to linear peptides” value stood at 0.6, the “Binding of Control serum LUMC to linear peptides” value is 0.7 and the “Binding of Control serum LUMC to looped peptides” value is 0.5.
